ChEMBL document CHEMBL3046007, “Isonicotinic acid hydrazide derivatives: synthesis, antimicrobial activity, and QSAR studies” (Med Chem Res, 2012)
In brackets after ≈: the same amount, converted by molar mass.

Assays:
Aspergillus niger = assay: Antimicrobial activity against Aspergillus niger after 7 days by serial dilution method; type: functional
Candida albicans = assay: Antimicrobial activity against Candida albicans after 48 hr by serial dilution method; type: functional
Escherichia coli = assay: Antimicrobial activity against Escherichia coli after 24 hr by serial dilution method; type: functional
Staphylococcus aureus = assay: Antimicrobial activity against Staphylococcus aureus after 24 hr by serial dilution method; type: functional
Bacillus subtilis = assay: Antimicrobial activity against Bacillus subtilis after 24 hr by serial dilution method; type: functional
[1] = Cytotoxicity against Chlorocebus aethiops (African green monkey) Vero cells assessed as alteration in cell morphology; type: cell-based; details: chlorocebus sabaeus
Punta Toro virus = assay: Antiviral activity against Punta Toro virus infected Vero cells assessed as inhibition of virus-induced cytopathicity; type: functional, organism-based
Coxsackievirus B4 [2] = assay: Antiviral activity against Human coxsackievirus B4 infected Vero cells assessed as inhibition of virus-induced cytopathicity; type: functional, organism-based; details: Enterovirus B
Sindbis virus = assay: Antiviral activity against Sindbis virus infected Vero cells assessed as inhibition of virus-induced cytopathicity; type: functional, organism-based
[3] = test system: Mammalian orthoreovirus 1; assay: Antiviral activity against Mammalian orthoreovirus 1 infected Vero cells assessed as inhibition of virus-induced cytopathicity; type: functional, organism-based; details: Mammalian orthoreovirus 1, Vero
Human respirovirus 3 = assay: Antiviral activity against Human parainfluenza virus 3 infected Vero cells assessed as inhibition of virus-induced cytopathicity; type: functional, organism-based; details: Human respirovirus 3, Vero
[4] = test system: Respiratory syncytial virus; assay: Antiviral activity against Respiratory syncytial virus infected human HeLa cells assessed as inhibition of virus-induced cytopathicity; type: functional, organism-based
Coxsackievirus B4 [5] = assay: Antiviral activity against Human coxsackievirus B4 infected human HeLa cells assessed as inhibition of virus-induced cytopathicity; type: functional, organism-based; details: Enterovirus B
[6] = test system: Vesicular stomatitis virus; assay: Antiviral activity against Vesicular stomatitis virus infected human HeLa cells assessed as inhibition of virus-induced cytopathicity; type: functional, organism-based
[7] = Cytotoxicity against Homo sapiens (human) HeLa cells; type: cell-based
[8] = Cytotoxicity against Homo sapiens (human) HEL cells; type: cell-based
Human alphaherpesvirus 1 [9] = assay: Antiviral activity against TK(-) aciclovir-resistant Human herpesvirus 1 strain KOS infected in human HEL cells assessed as inhibition of virus-induced cytopathicity; type: functional, organism-based; details: Human alphaherpesvirus 1, KOS
Vaccinia virus = assay: Antiviral activity against Vaccinia virus infected human HEL cells assessed as inhibition of virus-induced cytopathicity; type: functional, organism-based; details: Orthopoxvirus vaccinia
Human alphaherpesvirus 2 = assay: Antiviral activity against Human herpesvirus 2 strain G infected human HEL cells assessed as inhibition of virus-induced cytopathicity; type: functional, organism-based; details: Human alphaherpesvirus 2, strain G
Human alphaherpesvirus 1 [10] = assay: Antiviral activity against Human herpesvirus 1 strain KOS infected in human HEL cells assessed as inhibition of virus-induced cytopathicity; type: functional, organism-based; details: Human alphaherpesvirus 1, KOS
[11] = Cytotoxicity against Homo sapiens (human) MT4 cells; type: cell-based
[12] = test system: Human immunodeficiency virus 2; assay: Antiviral activity against Human immunodeficiency virus type 2 (ISOLATE ROD) infected human MT4 cells assessed as inhibition of virus-induced cytopathicity; type: functional, organism-based; details: Human immunodeficiency virus 2, ISOLATE ROD
[13] = test system: Human immunodeficiency virus 1; assay: Antiviral activity against Human immunodeficiency virus 1 IIIB infected human MT4 cells assessed as inhibition of virus-induced cytopathicity; type: functional, organism-based

SMILES	-logMIC (Aspergillus niger)	-logMIC (Candida albicans)	-logMIC (Escherichia coli)	-logMIC (Staphylococcus aureus)	-logMIC (Bacillus subtilis)	MCC [1] [µg/mL]	EC50 (Punta Toro virus) [µg/mL]	EC50 (Coxsackievirus B4 [2]) [µg/mL]	EC50 (Sindbis virus) [µg/mL]	EC50 [3] [µg/mL]	EC50 (Human respirovirus 3) [µg/mL]	EC50 [4] [µg/mL]	EC50 (Coxsackievirus B4 [5]) [µg/mL]	EC50 [6] [µg/mL]	MCC [7] [µg/mL]	MCC [8] [µg/mL]	EC50 (Human alphaherpesvirus 1 [9]) [µg/mL]	EC50 (Vaccinia virus) [µg/mL]	EC50 (Human alphaherpesvirus 2) [µg/mL]	EC50 (Human alphaherpesvirus 1 [10]) [µg/mL]	also measured
COc1cc(/C=N/NC(=O)c2ccncc2)ccc1O [FTIVAZIDE]	2.34	2.34	2.34	2.04	2.04	> 100	> 100	> 100	> 100	> 100	> 100	> 20	> 20	> 20	100	> 100	> 100	> 100	> 100	> 100	CC50 [11]: ≥ 89 µg/mL; EC50 [12]: > 89 µg/mL; EC50 [13]: > 89 µg/mL
C/C=C/C=N/NC(=O)c1ccncc1	2.18	2.48	1.88	1.88	1.88	100	> 20	> 20	> 20	> 20	> 20	> 20	> 20	> 20	100	100	> 20	> 20	> 20	> 20	CC50 [11]: 11 µg/mL (≈ 58.1 µM); EC50 [12]: > 11 µg/mL; EC50 [13]: > 11 µg/mL
O=C(N/N=C/c1c(O)ccc2ccccc12)c1ccncc1	2.37	2.37	2.07	2.07	2.07	≥ 0.8	> 0.8	> 0.8	> 0.8	> 0.8	> 0.8	> 0.04	> 0.04	> 0.04	0.2	≥ 20	0.4 (≈ 1.37 µM)	0.14 (≈ 0.481 µM)	0.4 (≈ 1.37 µM)	0.06 (≈ 0.206 µM)	CC50 [11]: 0.1 µg/mL (≈ 0.343 µM); EC50 [12]: > 0.1 µg/mL; EC50 [13]: > 0.1 µg/mL
COc1cc(/C=N/N(C(=O)c2ccccc2)C(=O)c2ccncc2)ccc1O	2.48	3.08	2.48	2.48	2.18	≥ 100	> 100	> 100	> 100	> 100	> 100	> 20	> 20	> 20	100	> 100	> 100	> 100	> 100	> 100	CC50 [11]: 105 µg/mL (≈ 280 µM); EC50 [12]: > 105 µg/mL; EC50 [13]: > 105 µg/mL
